The target of data set [1] is T1, AChE from Electrophorus electricus (Electrophorus electricus, UniProt O42275).
T1 construct: purchased Sigma (St. Louis, MO, USA)
Briefly: biochemical. The procedure: AChEI activity was measured using Ellman’s method. AChE hydrolyzes the substrate ACTI into acetate and thiocholine. In a neutral and alkaline medium; thiocholine reacts with DTNB to give yellow colored 2-nitro-5-thiobenzoate, which can be detected spectrophotometrically at 405 nm. Briefly, in a 96-well plate, 25 µL of 15 mM ACTI, 125 µL of 3 mM DTNB in buffer B (50 mM Tris HCl, pH = 8, 0.1 M NaCl, 0.02 M MgCl2·6H2O), 50 µL of buffer A (50 mM Tris-HCl, PH 8, 0.1% BSA) and 25 µL of tested sample (dissolved in 25% DMSO) were mixed, and the absorbance was measured using a microplate reader (Biotek, Winooski, VT, USA) at 405 nm every 16 s ten times. Then, 25 µL of AChE (0.25 U/mL in buffer A) was added and the absorbance was measured ten times every 16 s. A solution of 25% DMSO was used as a negative control. Absorbance was plotted against time and enzyme activity was calculated from the slope of the line so obtained and expressed as a percentage compared to an assay using a buffer without any inhibitor. Fractions were tested at 400 µg/mL. To avoid any increase in absorbance due to the color of the compounds or spontaneous hydrolysis of the substrate, the absorbance before addition of the enzyme was subtracted from the absorbance after adding the enzyme.
(§1) IC50 values of isolated compounds in AChEI and scavenging of hydroxyl radical assays were calculated using Probit Analysis (SPSS Version 16.0 for Windows, SPSS Inc., Chicago, IL, USA) for five different concentrations in three independent experiments. Cell viability was expressed as a percentage of MTT reduction, assuming that the viability of cells treated with 1% DMSO as a negative control was 100%. Figures were built in Microsoft Excel 2010. All values are the mean ± SD of three independent experiments. Data were analyzed for statistical significance using one-way ANOVA, followed by Dunnet’s test as a post-hoc test with GraphPad Prism 5.0 software for Windows (Inc., San Diego, CA, USA).

Data set [2] in a line: Scavenging of hydroxyl radical, 2-deoxyribose degradation assay. Conditions: for % Inhibition of deoxyribose degradation, Site-Specific / % Inhibition of deoxyribose degradation, Non Site-Specific: 300 µM; for % Inhibition of deoxyribose degradation, Non Site-Specific: 25 min, pH 7.4. The procedure: The inhibitory effect of bioactive compounds on deoxyribose degradation was determined by measuring the competition between deoxyribose and bioactive compounds for the hydroxyl radicals (^.OH) generated from the Fe^3+/ascorbate/EDTA/H2O2 system (referred to non-site-specific assay; the major activity measured is ^.OH scavenging) or an Fe^3+/ascorbate/H2O2 system (referred to as a site-specific assay; major activity measured is metal chelation). Both assays depend on the formation of a highly reactive hydroxyl radical, OH, by the interaction of iron ions with H2O2 through Fenton’s reaction. […] This assay was performed as previously described. Different concentrations of tested compounds were dissolved in 400 µL phosphate buffer (0.2 M, pH 7.4). Then, 50 µL of deoxyribose (60 mM), 50 µL of Na2EDTA (2 mM), 50 µL of FeCl3 (3.2 mM), 50 µL of H2O2 (60 mM) and 50 µL of ascorbic acid (2 mM) were added, and the total volume of the reaction mixture was adjusted to 1 mL with buffer. After water-bath incubation at 50 °C for 25 min, the reaction was terminated by 250 µL of trichloroacetic acid (10%, w/w). […] For site-specific hydroxyl-radical-scavenging activity, the reaction mixture was similar to the above method, except that EDTA was replaced by an equivalent volume of buffer.
as §1, with “Figures were built in Microsoft Excel 2010.” left out

In data set [3] the test system is neuro-2A cells. As to the kind of experiment: Protection against H2O2-induced neurotoxicity (MTT). Type of data set: cell-based, Mouse. Conditions: for Protection against H2O2: summary Table 4; for neuroprotection against H2O2-induced neurotoxicity (in words): 6.25-100 µM, H2O2 150 µM. The procedure:
(§2) Neuro-2A cell line was maintained in Eagle’s Minimum Essential medium supplemented with 10% fetal bovine serum, 1% of 100× antibiotic—antimitotic agents (containing penicillin and streptomycin) in a humid atmosphere of 5% (v/v) CO2 and 95% (v/v) air at 37 °C. Neuro-2A cells were plated in 96-well cell culture plates at a density of 3 × 10^4 cells/well for H2O2 and intracellular ROS assays and 2.5 × 10^3 cells/well for the Aβ25-35-assay.
(§3) Cell viability was determined by MTT reduction assay. Briefly, after treatment with isolated compounds, the media was replaced by fresh one after washing the cells with 100 µL PBS and 20 µL of MTT (5 mg/mL) was added to each well. After 4 h incubation at 37 °C, the state of cells was checked under microscope to confirm either cytotoxicity in H2O2 and Aβ25-35 wells or protection in positive controls and isolated compounds ones. The supernatants were aspirated carefully, and 150 µL of DMSO was added to each well to dissolve the dark blue formazan crystals. The absorbance was measured using a microplate reader at 570 nm.
H2O2 interacts with metals in the medium, producing highly cytotoxic hydroxyl radicals that induce neurotoxicity. So, active compounds are those that can scavenge free radicals and increase the cell viability. This assay was performed as previously described with slight modifications. Briefly, the concentration of H2O2 that decreased cell viability to about 50% was determined as follows: cells were cultured in a 96-well plate and after 24 h were further incubated with different concentrations of H2O2 (50, 100, 150, 200 µM) freshly prepared from 30% stock solution. After 24 h, cell viability was determined using the MTT reduction method. H2O2 at a concentration of 150 µM had the desired cytotoxicity and was used for the next step.

Data set [4] concerns intracellular ROS in Neuro-2A cells. Briefly: Scavenging of intracellular reactive oxygen species (Bes-H2O2-AC, DFF fluorescence). For Intracellular ROS Scavenging: key: +: Weak activity; ++: Strong activity. The conditions noted are these: for decrease of DFF fluorescence intensity (intracellular ROS): at 50 and 100 µM, H2O2 600 µM 30 min; for Intracellular ROS Scavenging: summary Table 4. Type of data set: cell-based, Mouse. The procedure:
as §2
This assay was performed as previously described with some modifications. Briefly, Neuro-2A cells were seeded in 96-well Clear Fluorescence Black Plate (number 655090, Greiner Bio-one, Tokyo, Japan). Cells were treated with three different concentrations (25, 50, 100 µM) of the samples. After 2 h incubation, cells were subjected to oxidative stress using 600 µM of H2O2 for 30 min. The nucleus was stained by Hoechst 33342 (Dojindo, Kumamoto, Japan), and the amount of difluorofluorescein (DFF) released from the reaction of H2O2 and BES-H2O2-Ac was taken as an indication of the amount of intracellular H2O2 and ROS. Images of each well were acquired using an IN Cell Analyzer 1000 (GE Healthcare, Buckinghamshire, UK) using 360-nm (Hoechst 33342) and 480-nm (BES-H2O2-Ac) excitation filters and monitored through 460-nm and 535-nm emission filters, respectively. Developer software was used to analyze the images of Hoechst 33342 and BES-H2O2-Ac staining, and the resulting data were then applied to Spotfire Decision Site Client 8.2 software for visualizing the results.

The subject of data set [5] is neuro-2A cells. As to the kind of experiment: Protection against Aβ25-35-induced neurotoxicity (MTT). For Protection against Aβ25-35: key: +: Weak activity; ++: Strong activity. Type of data set: cell-based, Mouse. The conditions noted are these: for neuroprotection against Aβ25-35 (in words): at the highest concentration (100 µM); for Protection against Aβ25-35: summary Table 4. The procedure:
as §2, §3
Similarly, the concentration of Aβ25-35 that decreased cell viability to about 50% was determined. […] So, the cells were incubated with different concentrations of the isolated compounds (6.25, 12.5, 25, 50 and 100 µM) and EGCG as a positive control for 3 h followed by Aβ25-35 treatment for 72 h.

The mark [6] stands for this setting: summary Table 4, read-out: AchEI IC50.
The mark [7] stands for this setting: Fe3+/ascorbate/EDTA/H2O2 system, read-out: IC50 hydroxyl radical scavenging, Non Site-Specific.
Setting [8] is: Fe3+/ascorbate/H2O2 system without EDTA, read-out: IC50 hydroxyl radical scavenging, Site-Specific.
[9] abbreviates: Ellman's method, read-out: IC50 in the AChEI assay.
Setting [10] is: summary Table 4 (values of the non site-specific assay), read-out: Hydroxyl Radical Scavenging/IC50.

Read-outs that look alike come from different tables or passages of the source.

The results in this text go back to paper PMC6272295, “In Vitro Neuroprotective Activities of Compounds from Angelica shikokiana Makino” (Molecules, 2015).

As a reminder, the inhibition is the change of the read-out against control, counted positive when it falls. Higher therefore signals a strong effect.

T1 sequence (O42275 24-633): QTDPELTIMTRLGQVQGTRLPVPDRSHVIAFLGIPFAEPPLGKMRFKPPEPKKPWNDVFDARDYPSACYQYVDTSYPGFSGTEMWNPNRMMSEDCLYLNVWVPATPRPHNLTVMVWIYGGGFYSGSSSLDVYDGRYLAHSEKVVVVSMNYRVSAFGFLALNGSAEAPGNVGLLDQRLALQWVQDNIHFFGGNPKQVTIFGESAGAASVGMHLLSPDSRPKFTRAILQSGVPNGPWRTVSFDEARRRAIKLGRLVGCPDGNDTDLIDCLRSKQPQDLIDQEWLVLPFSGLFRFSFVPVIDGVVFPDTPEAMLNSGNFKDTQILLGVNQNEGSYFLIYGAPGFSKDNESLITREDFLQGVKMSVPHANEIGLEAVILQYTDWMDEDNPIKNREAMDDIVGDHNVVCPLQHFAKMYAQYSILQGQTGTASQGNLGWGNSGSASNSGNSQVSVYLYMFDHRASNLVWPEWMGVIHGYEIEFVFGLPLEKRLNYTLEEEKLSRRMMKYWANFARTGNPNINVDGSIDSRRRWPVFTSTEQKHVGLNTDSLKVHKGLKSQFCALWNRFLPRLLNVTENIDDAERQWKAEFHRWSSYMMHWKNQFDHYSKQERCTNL

Regarding `O=Cc1ccc(CO)o1` [5-(Hydroxymethyl)-2-furaldehyde (7), 5-(hydroxymethyl)-2-furaldehyde], the “IC50 in the AChEI assay” value in data set [1] (Ellman's method) is “inactive”. In addition, the IC50 in data set [1] (setting [6]) is greater than 500 µM. Also, in data set [2], the “% Inhibition of deoxyribose degradation, Site-Specific” value is on record as “-” and the “% Inhibition of deoxyribose degradation, Non Site-Specific” value came out at 4 ± 0.3%.

With `Nc1ncnc2c1ncn2[C@@H]1O[C@H](CO)[C@@H](O)[C@H]1O` [Adenosine (15), adenosine], in data set [1] (Ellman's method), the “IC50 in the AChEI assay” value was “inactive”. Further, the IC50 in data set [1] (setting [6]) was greater than 500 µM.

Regarding `Oc1cc(O)c2c(c1)OC(c1ccc(O)c(O)c1)C(O)C2` (centres unmarked) [Catechin (positive control), Catechin, reference compound], the IC50 in data set [2] (setting [7]) is 473 ± 8.6 µM; in data set [2] (setting [8]), 534 ± 19.2 µM.

As for `O=C(/C=C/c1ccc(O)c(O)c1)O[C@@H]1C[C@](O)(C(=O)O)C[C@@H](O)[C@H]1O` [Chlorogenic acid (11), chlorogenic acid], the “IC50 in the AChEI assay” value in data set [1] (Ellman's method) was “inactive”. The IC50 in data set [1] (setting [6]) was greater than 500 µM. Besides, the “Protection against H2O2” value in data set [3] is given as “++”. Also, in data set [4], the “decrease of DFF fluorescence intensity (intracellular ROS)” value (“decrease of DFF fluorescence intensity” below) is “significantly decrease the fluorescence intensity” and the “Intracellular ROS Scavenging” value is given as “++”.

`OO` [H2O2, reference compound]: in data set [3] (150 µM H2O2, 24 h, MTT), the “cytotoxicity of H2O2” value is given as 48.2% ± 1.8%.

On to `O=c1cc(-c2ccc(O)c(O)c2)oc2cc(O)cc(O)c12` [Luteolin (9), luteolin], for which the IC50 in data set [1] (setting [9]) was greater than 500 µM; in data set [1] (setting [6]), greater than 500 µM; in data set [2] (setting [7]) it was 753 ± 11.1 µM; in data set [2] (setting [8]), 980 ± 15.8 µM; in data set [2] (setting [10]), 753 ± 11.1 µM. Also, at 250 µM the inhibition in data set [1] (at 250 µM) was 30%. In data set [3], the “Protection against H2O2” value is listed as “++”. In data set [4], the “decrease of DFF fluorescence intensity” value was “significantly decrease the fluorescence intensity”. For the same compound, the “Intracellular ROS Scavenging” value in data set [4] is “++”. Moreover, in data set [5], the “neuroprotection against Aβ25-35 (in words)” value is reported as “significant neuroprotection (p < 0.05)”. In addition, the “Protection against Aβ25-35” value in data set [5] is given as “+”.

On to `COC(=O)C1(O)CC(O)C(O)C(OC(=O)C=Cc2ccc(O)c(O)c2)C1` (centres unmarked) [Methyl chlorogenate (10), methyl chlorogenate], for which the IC50 in data set [1] (setting [9]) is greater than 500 µM; in data set [1] (setting [6]), greater than 500 µM; in data set [2] (setting [7]), 840 ± 12.4 µM; in data set [2] (setting [8]), 920 ± 10.9 µM; in data set [2] (setting [10]), 840 ± 12.4 µM. In data set [1] (at 500 µM), the inhibition at 500 µM was 10%. In data set [3], the “Protection against H2O2” value is reported as “++”. The “decrease of DFF fluorescence intensity” value in data set [4] was “significantly decrease the fluorescence intensity”. For the same compound, in data set [4], the “Intracellular ROS Scavenging” value was “++”.

Consider `O=c1c(O)c(-c2ccc(O)c(O)c2)oc2cc(O)cc(O)c12` [Quercetin (12), quercetin], for which, in data set [2] (setting [7]), the IC50 stood at 672 ± 10.6 µM. The IC50 in data set [2] (setting [8]) turned out to be 837 ± 21.6 µM. In data set [2] (setting [10]), the IC50 came to 672 ± 10.6 µM. In addition, the “Protection against H2O2” value in data set [3] is listed as “++”. Moreover, in data set [4], the “decrease of DFF fluorescence intensity” value was “significantly decrease the fluorescence intensity” and the “Intracellular ROS Scavenging” value was “++”. Besides, in data set [5], the “neuroprotection against Aβ25-35 (in words)” value is on record as “significant neuroprotection (p < 0.05)” and the “Protection against Aβ25-35” value is listed as “+”.

Regarding `CC1(C)CCC2(C)CCC3(C)C4CC=C5C(CCC(O)C5(C)C)C4(C)CCC3(C)C2C1` (stereo not drawn) [α-Glutinol (1), α-glutinol], the “IC50 in the AChEI assay” value in data set [1] (Ellman's method) is “inactive”. For the same compound, the IC50 in data set [1] (setting [6]) is greater than 500 µM. Also, the “neuroprotection against H2O2-induced neurotoxicity (in words)” value in data set [3] was “did not show significant neuroprotection”.

Turning to `CC1(C)CC[C@]2(C)CC[C@]3(C)C(=CC[C@@H]4[C@@]5(C)CC[C@H](O)C(C)(C)[C@@H]5CC[C@]43C)[C@@H]2C1` [β-Amyrin (2), β-amyrin], the “IC50 in the AChEI assay” value in data set [1] (Ellman's method) was “inactive”. Moreover, the IC50 in data set [1] (setting [6]) is greater than 500 µM. Further, in data set [2], the “% Inhibition of deoxyribose degradation, Site-Specific” value is “-” and the “% Inhibition of deoxyribose degradation, Non Site-Specific” value is given as “-”. Besides, in data set [3], the “neuroprotection against H2O2-induced neurotoxicity (in words)” value was “did not show significant neuroprotection”.

In the case of `CCC(CCC(C)C1CCC2C3CC=C4CC(OC5OC(CO)C(O)C(O)C5O)CCC4(C)C3CCC12C)C(C)C` (stereo not drawn) [β-Sitosterol-3-O-glucoside (5), β-sitosterol-3-O-glucoside], in data set [1] (Ellman's method), the “IC50 in the AChEI assay” value was “inactive”. Moreover, in data set [1] (setting [6]), the IC50 was greater than 500 µM.

Turning to “Aβ25-35: amyloid β peptide fragment used to induce neurotoxicity (GSNKGAIIGLM; Amyloid-beta protein 42; UniProt P05067 696-706, looked up, fragment) [reference compound]”, in data set [5] (25 µM, 72 h incubation), the “cytotoxicity of Aβ25-35” value is given as 55% ± 4.6%.
